Consider 41 molecules from ChEMBL document CHEMBL3507680, “University of Dundee, Gates Library screen for HepG2 cell viability”.

The data set is described as follows: Human HepG2 cell viability assay in 384 well format. It counts as toxicity, cell-based. The arrangement: dose 125 nL, time 70.5 hour; concentration not given beside the values. As to conditions: HepG2 cells, read-out: Inhibition.

`CCn1cnnc1CNC(=O)NC(C)C(C)C` (stereo unspecified): the cytotoxicity at 70.5 h is -17.7%.

As for `Cn1cnnc1C1CCN(C(=O)CCCOc2ccccc2F)CC1`, the cytotoxicity at 70.5 h was -12.8%.

Turning to `Cc1cccc(-c2nc(CN3CCc4c(ncn4C)C3)no2)c1`, the cytotoxicity at 70.5 h came out at 20.5%.

As to `Cc1cc(C)n(CC2CCCN2CC(=O)NC2CCOCC2)n1` (stereo unspecified), the cytotoxicity at 70.5 h is -15.9%.

As for `COc1ccc2cc(C(=O)N3CCCCC3Cn3cccn3)[nH]c2c1` (stereo unspecified), the cytotoxicity at 70.5 h was -3.69%.

On to `Cc1cc(C)n(C2CN(CC(O)c3ccc4c(c3)OCO4)C2)n1` (stereo unspecified), for which the cytotoxicity at 70.5 h was -2.16%.

In the case of `CC(O)CN1CCN(C(=O)c2ccc(N(C)C)nn2)CC1` (stereo unspecified), the cytotoxicity at 70.5 h was -4.33%.

Consider `CC(C)c1nnc2n1CCN(CCCS(=O)(=O)c1ccccc1)C2`, for which the cytotoxicity at 70.5 h is -13.8%.

For `Cn1c(C2CC2)nc2c1CCN(CC(=O)Nc1nncs1)C2`, the cytotoxicity at 70.5 h is -18.2%.

On to `CN(C)c1ccc(C(=O)N2CCN(C(=O)N3CCCCC3)CC2)nn1`, for which the cytotoxicity at 70.5 h was -18.5%.

As to `Cc1ncc2c(n1)CCN(Cc1nc3ccccc3o1)C2`, the cytotoxicity at 70.5 h is 0.854%.

In the case of `O=C(NCc1cc[nH]n1)NCC(O)COc1cccc(F)c1` (stereo unspecified), the cytotoxicity at 70.5 h was found to be 22.7%.

Consider `Cc1nc(CNC(=O)NCC(O)c2ccc(F)cc2F)cs1` (stereo unspecified), for which the cytotoxicity at 70.5 h was -12%.

On to `Cc1noc(C)c1CC(=O)OCC(=O)N1CCc2sccc2C1`, for which the cytotoxicity at 70.5 h is 7.95%.

With `O=C(CCN1CCCN(c2nccs2)CC1)Nc1ccccc1`, the cytotoxicity at 70.5 h was determined as 28.8%.

For the molecule `CN(CCNC(=O)c1scnc1Cl)c1ccccc1`, the cytotoxicity at 70.5 h is 2.36%.

`Cc1csc(N2CCCN(C(=O)c3c(C)oc(C)c3C)CC2)n1`: the cytotoxicity at 70.5 h is -1.91%.

Turning to `Cc1ccc(CNC(=O)N2CCN(Cc3ccsc3)CC2)n1C`, the cytotoxicity at 70.5 h was found to be 30.9%.

`CCc1[nH]ncc1C(=O)N1CCCC(n2cccn2)C1` (stereo unspecified): the cytotoxicity at 70.5 h worked out at 3.94%.

For the molecule `Cc1ccc(N2CCCN(C(=O)c3c(C)oc(C)c3C)CC2)nn1`, the cytotoxicity at 70.5 h was -4.32%.

Take `NC(=O)CN1CCCN(C(=O)Cc2ccc3ccccc3c2)CC1`: the cytotoxicity at 70.5 h worked out at 33.3%.

With `Cc1ccc(NC2CCN(C(=O)c3n[nH]c4ccccc34)CC2)nn1`, the cytotoxicity at 70.5 h is 1.27%.

Consider `Cc1ccc(NC2CCN(C(=O)c3cnc(C)s3)CC2)nn1`, for which the cytotoxicity at 70.5 h is -6.52%.

As for `c1ccc2cc(OCCN3CCn4c(nnc4C4CC4)C3)ccc2c1`, the cytotoxicity at 70.5 h turned out to be 31%.

With `O=C(CCN1CCCN(c2nccs2)CC1)NCC1CCCCC1`, the cytotoxicity at 70.5 h was -8.1%.

For the molecule `Cc1ccc(-c2nc(CN3CCn4c(nnc4C4CC4)C3)co2)cc1`, the cytotoxicity at 70.5 h was -5.93%.

Turning to `Cc1ccc(C(=O)N2CCN(Cc3ccsc3)CC2)n1C`, the cytotoxicity at 70.5 h was -7.84%.

Turning to `Cc1cnc(CN(C)C2CCN(CCc3cnn(C)c3)C2)o1` (stereo unspecified), the cytotoxicity at 70.5 h is -0.678%.

As to `Cc1csc(N2CCCN(C(=O)c3cnns3)CC2)n1`, the cytotoxicity at 70.5 h turned out to be 31.6%.

Turning to `CCCn1[nH]cc/c1=N\C(=O)CN1CCc2cnc(CC)nc2C1`, the cytotoxicity at 70.5 h came to 2.85%.

As to `CC1CCN(C(=O)c2cccc3ncccc23)CC1`, the cytotoxicity at 70.5 h was determined as 4.77%.

Turning to `Cc1nc(C2CCCN2Cc2ncc(C(C)C)o2)no1` (stereo unspecified), the cytotoxicity at 70.5 h is 42.3%.

For `N#Cc1ccccc1OCCN1CCn2c(nnc2C2CC2)C1`, the cytotoxicity at 70.5 h came out at 5.39%.

For the molecule `CCn1ccnc1CN1CCC(N(C)Cc2ncc(C)o2)C1` (stereo unspecified), the cytotoxicity at 70.5 h amounted to 20.1%.

`Cc1cnn(CC2CCCCN2CCn2cncn2)c1` (stereo unspecified): the cytotoxicity at 70.5 h was 1.52%.

`O=C(Cn1cccnc1=O)NCCc1ccc2c(c1)OCCO2`: the cytotoxicity at 70.5 h was found to be 5.28%.

Turning to `NC(=O)CC1CCN(C(=O)NCc2ccccc2-n2cccn2)CC1`, the cytotoxicity at 70.5 h was -1.19%.

On to `OC(COc1ccccc1)CN1CCc2c(ncn2C2CC2)C1` (stereo unspecified), for which the cytotoxicity at 70.5 h was -6.53%.

Take `Cc1nc(CN2CCN(Cc3nccn3C)CC2)no1`: the cytotoxicity at 70.5 h turned out to be 3.86%.

On to `CCC(=O)N(C)CC(=O)Nc1ccc(Br)cn1`, for which the cytotoxicity at 70.5 h amounted to 2.06%.

`Cc1nn(C)c(N(C)C)c1CNCc1ccc(OCC(N)=O)cc1`: the cytotoxicity at 70.5 h turned out to be 0.111%.
